# Test results published in patent US20060276464A1, “Diarylsulfone sulfonamides and use thereof” (Wyeth, priority 2005, published 2006).
# pEC50, pIC50: −log10 of the molar value. Several values for one entry are separate records, joined by “and”; a condition that tells them apart may be missing. Equal values may be shown once. Read-outs that look alike come from different tables or passages of the source.
# Key:
# SFRP-1 [1] = biological target: T1, SFRP-1 (Homo sapiens, UniProt Q8N474); assay: Fluorescence polarization binding assay (competitive displacement of a probe compound from SFRP-1); details: fluorescence anisotropy, 45 nM SFRP-1, 20 nM probe;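 further: test compound competes with a fluorescent probe held by SFRP-1, seen as a drop in probe anisotropy after incubation in darkness, with anisotropy as function of rising compound dose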
# T1 sequence (Q8N474 32-314): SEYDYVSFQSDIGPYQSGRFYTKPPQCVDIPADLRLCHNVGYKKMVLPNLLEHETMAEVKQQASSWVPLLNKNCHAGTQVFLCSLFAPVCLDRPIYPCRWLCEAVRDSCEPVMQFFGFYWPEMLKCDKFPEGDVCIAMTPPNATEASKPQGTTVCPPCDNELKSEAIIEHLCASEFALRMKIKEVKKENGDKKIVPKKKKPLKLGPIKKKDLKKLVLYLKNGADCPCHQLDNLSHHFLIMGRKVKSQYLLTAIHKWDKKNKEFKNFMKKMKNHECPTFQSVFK
# SFRP-1 [2] = biological target: T1, SFRP-1; assay: Cell-based assay for in vitro measurement of SFRP-1/SARP2 antagonist activity (U2OS cells co-transfected with 16x TCF-tk-Luciferase reporter, Wnt and hSFRP-1); details: for fold induction at 10 µM / fold induction at 15 µM: U2OS; for fold induction at 10 µM: read-out: Fold Induction with SFRP-1, U2OS cells, single dose 10 μM, luciferase reporter, fold induction over SFRP-1 control;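 on all read-outs here: U2OS cells co-transfected with a TCF-tk luciferase reporter, a Wnt vector, hSFRP-1 or empty vector and CMV-βgal, luciferase luminescence read in cell lysates alongside βgal activity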
# [3] = read-out: Fold Induction with SFRP-1, Conc 15 μM, single dose, luciferase reporter, fold induction over SFRP-1 control, cells with SFRP-1
# [4] = read-out: Fold Induction without SFRP-1, Conc 15 μM, single dose, luciferase reporter, cells without SFRP-1 (specificity control)
# [5] = read-out: Fold Induction with SFRP-1, Conc 15 μM, with SFRP-1, fold induction over SFRP-1 control, single dose
# [6] = read-out: Fold Induction without SFRP-1, Conc 15 μM, without SFRP-1, single dose
compound,measurement,setting,value
"O=S(=O)(NC1Cc2ccccc2C1O)c1cc(S(=O)(=O)c2ccccc2)ccc1C(F)(F)F (stereo not drawn) [Example 900, N-(1-hydroxy-2,3-dihydro-1H-inden-2-yl)-5-(phenylsulfonyl)-2-(trifluoromethyl)benzenesulfonamide]",pIC50,SFRP-1 [1],7.10
same,fold induction at 10 µM,SFRP-1 [2],4.1
"O=S(=O)(NCCc1ccncc1)c1cc(S(=O)(=O)c2ccccc2)ccc1C(F)(F)F [Example 771, 5-(phenylsulfonyl)-N-(2-pyridin-4-ylethyl)-2-(trifluoromethyl)benzenesulfonamide]",pIC50,SFRP-1 [1],7.10
same,pEC50,SFRP-1 [2],6.13
same,fold induction at 10 µM,SFRP-1 [2],3.5
"O=C(N1CCOCC1)N1CCC(NS(=O)(=O)c2cc(S(=O)(=O)c3ccccc3)ccc2Cl)CC1 [Example 650, 2-chloro-N-[1-(morpholin-4-ylcarbonyl)piperidin-4-yl]-5-(phenylsulfonyl)benzenesulfonamide]",pIC50,SFRP-1 [1],5.00
same,fold induction at 15 µM,SFRP-1 [2]; [3],3.4
same,fold induction at 15 µM,SFRP-1 [2]; [4],1.1
"CC(C)(C)OC(=O)N1CCC[C@H]1C(=O)N1CCC(NS(=O)(=O)c2cc(S(=O)(=O)c3cccc(C#N)c3)ccc2C(F)(F)F)CC1 [Example 1095, tert-butyl (2S)-2-{[4-({[5-[(3-cyanophenyl)sulfonyl]-2-(trifluoromethyl)phenyl]sulfonyl}amino)piperidin-1-yl]carbonyl}pyrrolidine-1-carboxylate]",pIC50,SFRP-1 [1],7.22
same,pEC50,SFRP-1 [2],6.43
"C[C@@H](CO)NS(=O)(=O)c1cc(S(=O)(=O)c2ccccc2)ccc1C(F)(F)F [Example 725, N-[(1S)-2-hydroxy-1-methylethyl]-5-(phenylsulfonyl)-2-(trifluoromethyl)benzenesulfonamide]",pIC50,SFRP-1 [1],6.30
same,pEC50,SFRP-1 [2],5.90
same,fold induction at 10 µM,SFRP-1 [2],3.1
"CC(=O)N1CCC(NS(=O)(=O)c2cc(S(=O)(=O)c3ccc(F)cc3)ccc2C(C)C)CC1 [Example 529, N-(1-acetylpiperidin-4-yl)-5-[(4-fluorophenyl)sulfonyl]-2-isopropylbenzenesulfonamide]",pIC50,SFRP-1 [1],6.30
same,fold induction at 15 µM,SFRP-1 [2]; [3],2.8
same,fold induction at 15 µM,SFRP-1 [2]; [4],1
"Cc1ccc(S(=O)(=O)c2ccc(F)cc2)cc1S(=O)(=O)NCCN1CCOCC1 [Example 169, 5-[(4-fluorophenyl)sulfonyl]-2-methyl-N-(2-morpholin-4-ylethyl)benzenesulfonamide]",pIC50,SFRP-1 [1],4.89
same,fold induction at 15 µM,SFRP-1 [2]; [5],2.6
same,fold induction at 15 µM,SFRP-1 [2]; [6],0.9
"CN(CCNS(=O)(=O)c1cc(S(=O)(=O)c2ccccc2)ccc1C(F)(F)F)C(=O)N[C@H]1CCN(C(=O)OC(C)(C)C)C1 [Example 926, tert-butyl (3S)-3-[({methyl[2-({[5-(phenylsulfonyl)-2-(trifluoromethyl)phenyl]sulfonyl}amino)ethyl]amino}carbonyl)amino]pyrrolidine-1-carboxylate]",pIC50,SFRP-1 [1],6.30
same,pEC50,SFRP-1 [2],5.87
same,fold induction at 10 µM,SFRP-1 [2],3.6
"Cc1ccc(S(=O)(=O)c2ccc(F)cc2)cc1S(=O)(=O)NC1CCN(C(=O)c2ccc(C#N)cc2)CC1 [Example 586, N-[1-(4-cyanobenzoyl)piperidin-4-yl]-5-[(4-fluorophenyl)sulfonyl]-2-methylbenzenesulfonamide]",pIC50,SFRP-1 [1],5.62
same,fold induction at 15 µM,SFRP-1 [2]; [3],1.9
same,fold induction at 15 µM,SFRP-1 [2]; [4],1.1
"COC(=O)c1ccc(C(=O)N(C)CCNS(=O)(=O)c2cc(S(=O)(=O)c3ccccc3)ccc2C(F)(F)F)cc1 [Example 848, Methyl 4-({methyl[2-({[5-(phenylsulfonyl)-2-(trifluoromethyl)phenyl]sulfonyl}amino)ethyl]amino}carbonyl)benzoate]",pIC50,SFRP-1 [1],6.15
same,pEC50,SFRP-1 [2],5.78
same,fold induction at 10 µM,SFRP-1 [2],3.6
"O=C(c1c(F)cc(F)cc1F)N1CCC(NS(=O)(=O)c2cc(S(=O)(=O)c3ccccc3)ccc2C(F)(F)F)CC1 [Example 717, 5-(phenylsulfonyl)-N-[1-(2,4,6-trifluorobenzoyl)piperidin-4-yl]-2-(trifluoromethyl)benzenesulfonamide]",pIC50,SFRP-1 [1],6.77
same,pEC50,SFRP-1 [2],5.89
same,fold induction at 10 µM,SFRP-1 [2],5.3
"CC(C)c1ccc(S(=O)(=O)c2ccccc2)cc1S(=O)(=O)NC1CCC(C(=O)O)CC1 (stereo not drawn) [Example 953, 4-({[2-isopropyl-5-(phenylsulfonyl)phenyl]sulfonyl}amino)cyclohexanecarboxylic acid]",pIC50,SFRP-1 [1],5.15
same,fold induction at 10 µM,SFRP-1 [2],1.5
"CC(=O)N1CCC(NS(=O)(=O)c2cc(S(=O)(=O)c3ccc(F)cc3)ccc2C)CC1 [Example 585, N-(1-acetylpiperidin-4-yl)-5-[(4-fluorophenyl)sulfonyl]-2-methylbenzenesulfonamide]",pIC50,SFRP-1 [1],5.10
same,fold induction at 15 µM,SFRP-1 [2]; [3],2.7
same,fold induction at 15 µM,SFRP-1 [2]; [4],1.1
"O=C(O)CN1CCC(CCNS(=O)(=O)c2cc(S(=O)(=O)c3ccccc3)ccc2C(F)(F)F)CC1 [Example 944, {4-[2-({[5-(phenylsulfonyl)-2-(trifluoromethyl)phenyl]sulfonyl}amino)ethyl]piperidin-1-yl}acetic acid]",pIC50,SFRP-1 [1],5.77
same,pEC50,SFRP-1 [2],5.84
same,fold induction at 10 µM,SFRP-1 [2],2.9
"O=S(=O)(NC1CCN(CCN2CCOCC2)CC1)c1cc(S(=O)(=O)c2ccccc2)ccc1C(F)(F)F [Example 1019, N-[1-(2-morpholin-4-ylethyl)piperidin-4-yl]-5-(phenylsulfonyl)-2-(trifluoromethyl)benzenesulfonamide]",pIC50,SFRP-1 [1],6.54
same,pEC50,SFRP-1 [2],6.05
"CC(C)c1ccc([S@@+]([O-])c2ccccc2)cc1S(=O)(=O)NCCc1ccccn1 [Example 591, 2-isopropyl-5-[(S)-phenylsulfinyl]-N-(2-pyridin-2-ylethyl)benzenesulfonamide]",pIC50,SFRP-1 [1],5.30 and 5.22
same,fold induction at 15 µM,SFRP-1 [2]; [3],3.1
same,fold induction at 15 µM,SFRP-1 [2]; [4],1.3
"COc1ccc(C(=O)N(C)CCNS(=O)(=O)c2cc(S(=O)(=O)c3ccccc3)ccc2C(F)(F)F)cc1 [Example 822, 4-Methoxy-N-methyl-N-[2-({[5-(phenylsulfonyl)-2-(trifluoromethyl)phenyl]sulfonyl}amino)ethyl]benzamide]",pIC50,SFRP-1 [1],6.70
same,pEC50,SFRP-1 [2],5.74
same,fold induction at 10 µM,SFRP-1 [2],3.4
"C[C@H](CO)NS(=O)(=O)c1cc(S(=O)(=O)c2ccccc2)ccc1C(F)(F)F [Example 726, N-[(1R)-2-hydroxy-1-methylethyl]-5-(phenylsulfonyl)-2-(trifluoromethyl)benzenesulfonamide]",pIC50,SFRP-1 [1],6.10
same,fold induction at 10 µM,SFRP-1 [2],3
"COc1ccc(NC(=O)N(C)CCNS(=O)(=O)c2cc(S(=O)(=O)c3ccccc3)ccc2C(F)(F)F)c(OC)c1 [Example 828, N-{2-[{[(2,4-dimethoxyphenyl)amino]carbonyl}(methyl)amino]ethyl}-5-(phenylsulfonyl)-2-(trifluoromethyl)benzenesulfonamide]",pIC50,SFRP-1 [1],6.52
same,pEC50,SFRP-1 [2],5.63
same,fold induction at 10 µM,SFRP-1 [2],2.8
"CC(C)c1ccc(S(=O)(=O)c2ccccc2)cc1S(=O)(=O)NC1CCCC(C(=O)O)C1 (stereo not drawn) [Example 952, 3-({[2-isopropyl-5-(phenylsulfonyl)phenyl]sulfonyl}amino)cyclohexanecarboxylic acid]",pIC50,SFRP-1 [1],5.30
same,fold induction at 10 µM,SFRP-1 [2],1.4
"COc1cccc(S(=O)(=O)c2ccc(C(C)C)c(S(=O)(=O)NCCc3ccccn3)c2)c1 [Example 456, 2-isopropyl-5-[(3-methoxyphenyl)sulfonyl]-N-(2-pyridin-2-ylethyl)benzenesulfonamide]",pIC50,SFRP-1 [1],6.10
same,fold induction at 15 µM,SFRP-1 [2]; [5],3.6
same,fold induction at 15 µM,SFRP-1 [2]; [6],1
"CN(CCNS(=O)(=O)c1cc(S(=O)(=O)c2ccccc2)ccc1C(F)(F)F)C(=O)c1ccccc1 [Example 819, N-Methyl-N-[2-({[5-(phenylsulfonyl)-2-(trifluoromethyl)phenyl]sulfonyl}amino)ethyl]benzamide]",pIC50,SFRP-1 [1],6.66
same,pEC50,SFRP-1 [2],5.80
same,fold induction at 10 µM,SFRP-1 [2],3.3
"Cc1cc(C)c(S(=O)(=O)c2ccccc2)cc1S(=O)(=O)NC1CCN(C(=O)OC(C)(C)C)CC1 [Example 911, tert-butyl 4-({[2,4-dimethyl-5-(phenylsulfonyl)phenyl]sulfonyl}amino)piperidine-1-carboxylate]",pIC50,SFRP-1 [1],5.40
same,pEC50,SFRP-1 [2],5.62
same,fold induction at 10 µM,SFRP-1 [2],1.9
"O=S(=O)(NCCc1ccc[n+]([O-])c1)c1cc(S(=O)(=O)c2ccccc2)ccc1C(F)(F)F [Example 723, N-[2-(1-oxidopyridin-3-yl)ethyl]-5-(phenylsulfonyl)-2-(trifluoromethyl)benzenesulfonamide]",pIC50,SFRP-1 [1],6.70
same,pEC50,SFRP-1 [2],6.10
same,fold induction at 10 µM,SFRP-1 [2],4.5
"COc1cccc(S(=O)(=O)c2ccc(C(F)(F)F)c(S(=O)(=O)NCCc3cccnc3)c2)c1 [Example 747, 5-[(3-methoxyphenyl)sulfonyl]-N-(2-pyridin-3-ylethyl)-2-(trifluoromethyl)benzenesulfonamide]",pIC50,SFRP-1 [1],7.05
same,pEC50,SFRP-1 [2],6.11
same,fold induction at 10 µM,SFRP-1 [2],5.7
"CCc1ccc(S(=O)(=O)c2ccccc2)cc1S(=O)(=O)NCCc1ccccn1 [Example 223, 2-ethyl-5-(phenylsulfonyl)-N-(2-pyridin-2-ylethyl)benzenesulfonamide]",pIC50,SFRP-1 [1],6.05
same,fold induction at 15 µM,SFRP-1 [2]; [5],2.6
same,fold induction at 15 µM,SFRP-1 [2]; [6],0.8
